From paper PMC6286365 (Scientific Reports, 2018)
Entries after “also recorded” stand apart in the source; their conditions may differ.

Tests used:
[1] = tested on: GFAP-GFP mice; assay: Striatal IL-1β brain inflammation model: liver cytokines by qRT-PCR; type: in vivo, mouse; conditions: 10 mg/kg IP; 2 h post IL-1β
Procedure: As we have previously shown[11],[18], striatal injection of IL-1β in mice expressing GFP-GFAP in astroglia triggers a release of GFP-labelled EVs that rapidly enter into plasma, resulting in cytokine upregulation in liver and peripheral immune cell migration into brain[11]. […] There were two groups of mice: the first group was sacrificed 2 h after IL-1β administration by heart puncture, and GFP-labeled circulating EVs were measured with liver cytokines. […] Counting of astrocyte-released EV (GFP+) from blood and liver cytokine analysis was conducted by single injection of DPTIP. Although release of EVs from astrocytes can be initiated immediately after intracranial injection of IL-1β, infiltration of neutrophils in brain parenchyma occurred 12h-24h after the IL-1β injection. […]
Compounds were given 0.5 h before IL-1β dosing. […] (C) Liver cytokine levels under different treatments as measured by qRT-PCR of RNA isolated from fresh frozen liver tissue. Samples were analyzed in triplicate. **p < 0.01 and *p < 0.05 compared to saline control; ^##p < 0.01 and ^#p < 0.05 compared to IL1-β group. (D) Neutrophil levels in brain as measured by immunohistochemistry using coronal brain sections and Ly6b antibody. (E) Quantitation of (D); **p < 0.01 compared to saline control; ^##p < 0.01 compared to IL1-β group. […]

[2] = molecular target: T1, acid sphingomyelinase (Homo sapiens, UniProt P17405); assay: Acid sphingomyelinase inhibition (results not shown); type: biochemical
T1 sequence (P17405 47-631): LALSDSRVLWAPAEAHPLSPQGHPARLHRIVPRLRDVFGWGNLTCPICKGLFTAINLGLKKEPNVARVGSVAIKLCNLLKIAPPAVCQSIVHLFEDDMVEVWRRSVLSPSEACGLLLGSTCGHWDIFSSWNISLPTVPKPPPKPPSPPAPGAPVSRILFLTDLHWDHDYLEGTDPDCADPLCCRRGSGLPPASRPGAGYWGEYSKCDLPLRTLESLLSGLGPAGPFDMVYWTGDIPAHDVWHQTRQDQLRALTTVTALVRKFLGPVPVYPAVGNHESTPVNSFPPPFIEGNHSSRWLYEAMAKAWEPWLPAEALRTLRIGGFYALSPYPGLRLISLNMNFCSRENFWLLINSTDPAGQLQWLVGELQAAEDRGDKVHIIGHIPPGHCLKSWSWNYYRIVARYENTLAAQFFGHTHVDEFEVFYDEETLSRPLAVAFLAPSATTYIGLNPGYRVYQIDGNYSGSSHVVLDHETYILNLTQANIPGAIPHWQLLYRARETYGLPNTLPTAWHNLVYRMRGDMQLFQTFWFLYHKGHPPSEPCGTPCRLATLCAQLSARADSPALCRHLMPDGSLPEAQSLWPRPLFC

[3] = tested on: Rat primary astrocytes; assay: Astrocyte activation, GFAP immunofluorescence (+/-) serum deprivation; type: cell-based; conditions: 10 μM, 2 h
Procedure: Independent laboratories have shown that pharmacological and genetic inhibition of nSMase2 blocks EV secretion from glial cells. […] Two hours after treatment, EVs were isolated from the media and quantified by nanoparticle tracking analysis. […] Cells were fixed and immunofluorescence labeling for GFAP was performed.
Media was collected after 2 h incubation and centrifuged at 2700 × g for 15 min at 4 °C. Supernatant was collected and the number of extracellular vesicles (EVs) was quantified using ZetaView Nanoparticle Tracker. The mean concentration of EVs/mL (±SEM) was calculated from 4 replicate experiments. […] Astrocytes grown in complete medium were used as no treatment control. Cells were fixed and stained with anti-GFAP antibody (1:500, Sigma). Fluorescence intensity was measured using Image J. (C) Quantitation of fluorescence in (B). Bar graph represents background corrected mean fluorescence intensity measured from 100 astrocytes per condition. Error bars represent standard error of mean. One-way ANOVA followed by Tukey’s posthoc test was performed.

[4] = In vivo pharmacokinetics, plasma and brain, 10 mg/kg IP; conditions: male, CD1, mouse, mice
Procedure: Pharmacokinetic studies in mice were approved by the Animal Care and Use Committee at Johns Hopkins University. Male CD1 mice between 25 and 30 g were obtained from Harlan and maintained on a 12 h light−dark cycle with ad libitum access to food and water. Test compounds were dosed at 10 mg/kg IP at a dosing volume of 10 mL/kg. Blood and brain tissue were collected at 0.25, 0.5, 1, 2, 4 and 6 h post dose (n = 3 per time point). Blood was obtained via cardiac puncture and plasma was harvested from blood by centrifugation at 3000 × g for 15 min and stored at −80 °C. Brain tissues were harvested following blood collection and immediately snap frozen in liquid nitrogen and stored at −80 °C until LC−MS analysis. […] The samples were vortex mixed for 30 secs and centrifuged at 10000 × g for 10 min at 4 °C. Fifty microliter of the supernatant was diluted with 50 µL water and transferred to a 250 µL polypropylene vial sealed with a Teflon cap and analyzed via LC/MS/MS as described above. Plasma concentrations (pmol/mL) as well as tissue concentrations (pmol/g) were determined and plots of mean plasma concentration versus time were constructed for PK analysis. Non-compartmental-analysis modules in Phoenix WinNonlin version 7.0 (Certara USA, Inc., Princeton, NJ) were used to assess pharmacokinetic parameters including maximal concentration (Cmax), time to Cmax (Tmax), and area under the curve extrapolated to infinity (AUC0-∞).

COc1cc(-c2nc(-c3cccs3)c(-c3ccccc3)[nH]2)cc(OC)c1O [DPTIP, 2,6-Dimethoxy-4-(5-Phenyl-4-Thiophen-2-yl-1H-Imidazol-2-yl)-Phenol]
effect on upregulation of liver cytokines upon IL-1β treatment [1]: reduction of cytokine upregulation in liver; also recorded: inhibited | IC50 [2]: > 100 µM | effect on GFAP levels without serum starvation ([3]; no serum starvation): did not change GFAP levels | effect on astrocyte activation (GFAP) in response to serum starvation ([3]; with serum deprivation): prevented astrocyte activation | Kp ([4]; brain and plasma, read-out: AUCbrain/AUCplasma): 0.26 | AUC(0-inf) ([4]; brain): 2.6 ± 0.5 µM·h | Tmax ([4]; brain): 30 min | AUC(0-inf) ([4]; plasma): 10 ± 1 µM·h | Tmax ([4]; plasma): 30 min
